Experimental data published in US20080090767A1, “Agent for prophylaxis of reflex sympathetic dystrophy after cerebral apoplexy” (Asahi Kasei Pharma Corporation, priority 2006, published 2008).

Experiments:
[1] = tested on: patients with hemiplegia attributed to cerebrovascular disease (stroke) at Brunnstrom stage III or lower, not yet developing RSD; experiment: Test of prevention of onset of post-stroke RSD (Example 1); assay type: in vivo, human
Description: Test subjects were 32 patients with hemiplegia attributed to cerebrovascular disease (stroke) at Brunnstrom stage III or lower in either the upper limb or a finger on admission. Patients already developing RSD (shoulder-hand syndrome) on admission and patients with pain in the shoulder joint or swollen paralyzed limbs were excluded from the test. […] On the other hand, 21 test subjects were classified into a rehabilitation alone group (control group) and compared with the EL administration group. Physical therapy and therapeutic exercise, occupational therapy, and the management of the paralyzed limbs were performed thoroughly in all the cases. […] EL administration was initiated 11 to 59 days after an attack of stroke (25.8 days on average) and continued until 5 months after the attack of stroke. The same observation period was applied to the control group. The test subjects were diagnosed as developing RSD (shoulder-hand syndrome) if they had diffuse pain not localized to the shoulder joint, edema involving skin color changes, skin temperature abnormalities, and range of motion limitations, and the practice of their rehabilitation was restricted. These criteria agreed to Veldman's diagnostic criteria or diagnostic criteria for CRPS-type 1 provided by the International Association for the Study of Pain.
Activities of daily living (ADL) were evaluated on the basis of the Barthel Index (BI) and the range of motion (ROM) of shoulder joint. The movable range of shoulder joint (also referred to as “shoulder ROM”) was regarded as restricted (Shoulder-ROM-restrictions were present.) if either abduction or flexion was restricted in measurement. The test subjects were also examined for sensory impairment, aphasia, and unilateral spatial neglect on admission.
Statistical analysis was conducted with unpaired t-test, Fisher's exact test or Wilcoxon test, and 5% or lower significance level was regarded as being significant.

[2] = tested on: patients with hemiplegia attributed to cerebrovascular disease (stroke) who developed RSD (shoulder-hand syndrome); experiment: Test of treatment of post-stroke RSD (Reference Example 1); assay type: in vivo, human
Protocol: EL was administered after the onset of RSD (shoulder-hand syndrome) in the same use and dose as in Example 1 to 11 patients with hemiplegia attributed to cerebrovascular disease (stroke) at Brunnstrom stage III or lower in either the upper limb or a finger on admission, who developed RSD (shoulder-hand syndrome). These patients were classified into a therapeutic administration group. On the other hand, the EL administration group of Example 1 was compared as a control (preventive administration group) with the therapeutic administration group.

[3] = tested on: RSD triggered and developed by a trauma or surgical invasion; conditions: literature report; cited from earlier work
[4] = EL preventive administration group, 20 units i.m. once a week, until 5 months after the attack of stroke
[5] = preventive administration group
[6] = therapeutic administration group

1-butyric acid-7-(L-2-aminobutyric acid)-26-L-aspartic acid-27-L-valine-29-L-alanine-calcitonin [elcatonin]
Incidence of RSD converted to incidence in all patients with hemiplegia attributed to stroke in the facility ([1]; EL administration group): approximately 1.3%
Incidence of RSD (cases that developed RSD) ([1]; EL preventive administration group, 1 of the 12 cases): 8.3%
The number of test subjects developing post-stroke RSD: Developed [1, 4]: 1
The number of test subjects developing post-stroke RSD: Not developed [1, 4]: 11
Incidence of RSD when EL administration was initiated within 48 days after stroke ([1]; administration initiated within 48 days after stroke): 0%
Barthel index, Average ± SE (at completion of administration) [1, 5]: 60.8 ± 9.3
Barthel index, Median (at completion of administration) [1, 5]: 72.5
No RSD, the number of persons (at completion of administration) [1, 5]: 11
Barthel index, Average ± SE (at completion of administration) [2, 6]: 31.8 ± 7.8
Barthel index, Median (at completion of administration) [2, 6]: 25
No RSD, the number of persons (at completion of administration) ([2]; therapeutic administration group (EL after onset of RSD)): 0

O=C1O[C@H]([C@@H](O)CO)C(O)=C1O [vitamin C]
Effect on the initial onset of RSD in subjects having no anamnesis of RSD after a trauma or surgical invasion [3]: preventive effect
